Data as given in patent publication US11053260B2, “Tri-cycle compound and applications thereof” (FUJIAN COSUNTER PHARMACEUTICAL CO., LTD., priority 2017, dated 2021).

What follows are molecules tested on HBV (assay: HBV in vitro test in quantitative qPCR assay (HBV DNA content in HepG2.2.15 cells)). Conditions: Hepatitis B virus, HepG2.2.15, 192 h, HBV DNA by qPCR, day 8, read-out: 50% inhibitory concentration (EC50) value of HBV.
Format: cell-based
Method: HBV In Vitro Test in Quantitative qPCR Assay
The HBV DNA content in HepG2.2.15 cells was determined by real-time quantitative qPCR assay (real time-qPCR), and the inhibitory effect of the compound on HBV was evaluated by the EC50 value of the compound.
2.1 Cell line: HepG2.2.15 cells
3.1 HepG2.2.15 cells (4×10^4 cells/well) were seeded into a 96-well plate and incubated overnight at 37° C. under 5% CO2.
3.2 On the 2nd day, the compound was diluted into 8 concentrations with 3-time gradient. The compounds with different concentrations were added into the culture wells in duplicate wells. The final concentration of DMSO in the culture medium was 1%. 1 μM GLS4 was used as a 100% inhibition control, and 1% DMSO was used as a 0% inhibition control.
3.3 On the 5th day, the culture medium was replaced with a fresh medium containing the compound.
3.4 On the 8th day, the culture medium in the culture well was collected, and the DNA was extracted with a high-throughput DNA purification kit (Qiagen-51162), of which specific procedure was referred to the product specification.
3.6 15 μL of the reaction mixture was added into each well of a 96-well PCR plate, followed by addition of 10 μL of sample DNA or HBV DNA standards into each well.
3.7 PCR reaction conditions: heating at 95° C. for 10 minutes; then denaturation at 95° C. for 15 seconds, extension at 60° C. for 1 minute, a total of 40 cycles.
3.8.1 Calculation of the percentage of inhibition: % Inh.=[1−(DNA copy number in sample−DNA copy number in 1 μM GLS4)/(DNA copy number in DMSO control−DNA copy number in 1 μM GLS4)]×100
3.8.2 Calculation of EC50: The 50% inhibitory concentration (EC50) value of the compound on HBV was calculated by GraphPad Prism software.

Row | SMILES | EC50
1 | O=C(NCCC1CCCO1)c1ccc2c(c1)NC(=O)c1cc(Cl)cn1S2(=O)=O (stereo not drawn) [WX143] | ≤ 100 nM
2 | CC(C)c1ncc(CNC(=O)c2ccc3c(c2)NC(=O)c2c(Cl)ccn2S3(=O)=O)s1 [WX145] | 100 to 500 nM
3 | CC(C)(C)OC(=O)N1CC2C(C1)C2NC(=O)c1ccc2c(c1)NC(=O)c1cccn1S2(=O)=O (stereo not drawn) [WX146] | 1000 to 10000 nM
4 | COCCCNC(=O)c1ccc2c(c1)NC(=O)c1cccn1S2(=O)=O [WX175] | 100 to 500 nM
5 | O=C(NCc1ccccn1)c1ccc2c(c1)NC(=O)c1cccn1S2(=O)=O [WX176] | 1000 to 10000 nM
6 | O=C(NCCC1CCCC1)c1ccc2c(c1)NC(=O)c1cccn1S2(=O)=O [WX184] | 100 to 500 nM
7 | CCc1cc2n(c1)S(=O)(=O)c1ccc(C(=O)NCCC3CCCO3)cc1NC2=O (stereo not drawn) [WX185] | ≤ 100 nM
8 | Cc1cc2n(c1)S(=O)(=O)c1ccc(C(=O)NCCC3CCCO3)cc1NC2=O (stereo not drawn) [WX186] | ≤ 100 nM
9 | O=C(NCCCC(F)(F)F)c1ccc2c(c1)NC(=O)c1cccn1S2(=O)=O [WX187] | 100 to 500 nM
10 | O=C(NCc1ccc(F)cc1)c1ccc2c(c1)NC(=O)c1cccn1S2(=O)=O [WX189] | 100 to 500 nM
11 | CS(=O)(=O)CCCNC(=O)c1ccc2c(c1)NC(=O)c1cccn1S2(=O)=O [WX190] | 500 to 1000 nM
12 | CC(C)(C)OC(=O)N1CC(NC(=O)c2ccc3c(c2)NC(=O)c2cccn2S3(=O)=O)C1 [WX195] | 500 to 1000 nM
13 | CC(C)(C)OC(=O)N1CC(CNC(=O)c2ccc3c(c2)NC(=O)c2cccn2S3(=O)=O)C1 [WX196] | ≤ 100 nM
14 | CC(C)(C)OC(=O)N1CCC(CCNC(=O)c2ccc3c(c2)NC(=O)c2cccn2S3(=O)=O)CC1 [WX197] | 100 to 500 nM
15 | CC(C)(C)OC(=O)N1CCCC1CNC(=O)c1ccc2c(c1)NC(=O)c1cccn1S2(=O)=O (stereo not drawn) [WX198] | 100 to 500 nM
16 | CC(C)(C)OC(=O)N1CCC(CNC(=O)c2ccc3c(c2)NC(=O)c2cccn2S3(=O)=O)CC1 [WX200] | ≤ 100 nM
17 | COC(=O)N1CC(NC(=O)c2ccc3c(c2)NC(=O)c2cccn2S3(=O)=O)C1 [WX201] | 500 to 1000 nM
18 | O=C(NCCc1cnco1)c1ccc2c(c1)NC(=O)c1cccn1S2(=O)=O [WX206] | 100 to 500 nM

Row | SMILES | EC50
19 | O=C(NCCN1CCCC1=O)c1ccc2c(c1)NC(=O)c1cccn1S2(=O)=O [WX208] | 500 to 1000 nM
20 | O=C(NCCn1ccccc1=O)c1ccc2c(c1)NC(=O)c1cccn1S2(=O)=O [WX211] | 500 to 1000 nM
21 | O=C(NCCC1CCCCC1)c1ccc2c(c1)NC(=O)c1cccn1S2(=O)=O [WX215] | 100 to 500 nM
22 | O=C(NCCc1ccc(F)cc1)c1ccc2c(c1)NC(=O)c1cccn1S2(=O)=O [WX216] | ≤ 100 nM
23 | COc1ccc(CCNC(=O)c2ccc3c(c2)NC(=O)c2cccn2S3(=O)=O)cc1 [WX217] | ≤ 100 nM
24 | O=C(NCCc1ccccc1)c1ccc2c(c1)NC(=O)c1cccn1S2(=O)=O [WX218] | ≤ 100 nM
25 | CSCCNC(=O)c1ccc2c(c1)NC(=O)c1cccn1S2(=O)=O [WX219] | ≤ 100 nM
26 | O=C(NCc1cccnc1)c1ccc2c(c1)NC(=O)c1cccn1S2(=O)=O [WX220] | ≤ 100 nM
27 | COC1(CCNC(=O)c2ccc3c(c2)NC(=O)c2cccn2S3(=O)=O)CC1 [WX223] | 500 to 1000 nM
28 | O=C(NCCC1CCC(F)(F)CC1)c1ccc2c(c1)NC(=O)c1cccn1S2(=O)=O [WX225] | 100 to 500 nM
29 | O=C(NCCN1CCCS1(=O)=O)c1ccc2c(c1)NC(=O)c1cccn1S2(=O)=O [WX226] | 500 to 1000 nM
30 | O=C(NCc1cccc(OC(F)(F)F)c1)c1ccc2c(c1)NC(=O)c1cccn1S2(=O)=O [WX227] | 100 to 500 nM
31 | O=C(NCc1ccncc1)c1ccc2c(c1)NC(=O)c1cccn1S2(=O)=O [WX228] | 100 to 500 nM
32 | O=C(NCCc1ccccn1)c1ccc2c(c1)NC(=O)c1cccn1S2(=O)=O [WX229] | 100 to 500 nM
33 | O=C(NCCC(F)(F)F)c1ccc2c(c1)NC(=O)c1cccn1S2(=O)=O [WX230] | 100 to 500 nM
34 | O=C(NCc1cncnc1)c1ccc2c(c1)NC(=O)c1cccn1S2(=O)=O [WX231] | 100 to 500 nM
35 | CS(=O)(=O)N1CC(NC(=O)c2ccc3c(c2)NC(=O)c2cccn2S3(=O)=O)C1 [WX232] | 500 to 1000 nM
36 | CN(C)c1ncc(CNC(=O)c2ccc3c(c2)NC(=O)c2cccn2S3(=O)=O)s1 [WX233] | ≤ 100 nM
